Data published in article PMC9833666, “Designing and identifying β-hairpin peptide macrocycles with antibiotic potential” (Science Advances, 2023).
Bridge positions count the residues as written; N and C are the ends. Ends that are not written are not given here. Peptide text beside a SMILES is read from it.

Experiments:
Escherichia coli W3110 = format: cell-based; settings: for Ec W3110 MIC MH: E. coli W3110, MH medium; for Ec W3110 MIC RPMI: E. coli W3110, RPMI medium
[1] = system: Single-donor human red blood cells; assay: Hemolysis assay; format: cell-based
Procedure: Single-donor human red blood cells (Innovative Research, no. IWB3ALS) were washed in PBS and adjusted to a concentration of 1 × 10^9 cells/ml. Each peptide was added individually to 200 μl of cells at a concentration of either 300 μg/ml (SySA library) or 128 μg/ml (SySA-5 optimization library) in a 96-well polypropylene plate (Corning, 3879). PBS alone and 1% Triton X-100 were used for background normalization and 100% hemolysis, respectively. Each reaction was set up in triplicate. Plates were incubated for 3 hours at 37°C. Following incubation, samples were centrifuged at 800g for 20 min, and 100 μl of supernatant was transferred to a flat-bottom 96-well plate (Genesse, 25-104). Percent hemolysis for each sample was determined by normalizing the absorbance at 540 nm for each sample to the average background and dividing by the average absorbance for 1% Triton X-100 (100% hemolysis). Error bars represent 1 SD of triplicate samples.

Row | Compound | Ec W3110 MIC MH (Escherichia coli W3110) | Ec W3110 MIC RPMI (Escherichia coli W3110) | hemolysis [1] | W3110 MIC (Escherichia coli W3110) | %Hemo [1]
1 | CLTVRVNNRGSGVKVSLEVC (disulfide 1-20 (inferred)) [SySA-54] | > 256 µg/mL | > 256 µg/mL | 1.51% | – | –
2 | CVTIRVDNRGSRLKISVQVC (disulfide 1-20 (inferred)) [SySA-33] | > 256 µg/mL | > 256 µg/mL | 0.26% | – | –
3 | CVRVRVDNRGSRVKVTVQVC (disulfide 1-20 (inferred)) [SySA-12] | > 256 µg/mL | > 256 µg/mL | 0.30% | – | –
4 | CRVRININNRSRTLKLELEC (disulfide 1-20 (inferred)) [SySA-68] | > 256 µg/mL | > 256 µg/mL | 0.47% | – | –
5 | CVTVRVNNRGRGLRISLQVC (disulfide 1-20 (inferred)) [SySA-47] | > 256 µg/mL | > 256 µg/mL | 0.48% | – | –
6 | CRIRININNRRGRLKLQVEC (disulfide 1-20 (inferred)) [SySA-76] | > 256 µg/mL | > 256 µg/mL | 0.27% | – | –
7 | CLRVRVNNRRSGVRVTLEVC (disulfide 1-20 (inferred)) [SySA-67] | > 256 µg/mL | > 256 µg/mL | 0.70% | – | –
8 | CRVKINVNNRGRTLKLELEC (disulfide 1-20 (inferred)) [SySA-58] | > 256 µg/mL | > 256 µg/mL | 0.000315% | – | –
9 | CLTVRLDNRGRGLKISVEVC (disulfide 1-20 (inferred)) [SySA-60] | > 256 µg/mL | > 256 µg/mL | 0.53% | – | –
10 | CC[C@H](C)[C@@H]1NC(=O)[C@H](CCCNC(=N)N)NC(=O)[C@H](CC(C)C)NC(=O)CNC(=O)[C@H](CO)NC(=O)[C@H](CCCNC(=N)N)NC(=O)[C@H](CCCNC(=N)N)NC(=O)[C@H](CC(N)=O)NC(=O)[C@H](CC(=O)O)NC(=O)[C@H](CC(C)C)NC(=O)[C@H](CCCNC(=N)N)NC(=O)[C@H](C(C)C)NC(=O)[C@H](CCCNC(=N)N)NC(=O)[C@H](C(C)C)NC(=O)[C@@H](N)CSSC[C@@H](C(=O)O)NC(=O)[C@H](C(C)C)NC(=O)[C@H](CCC(N)=O)NC(=O)[C@H](CC(C)C)NC(=O)[C@H](CO)NC1=O [SyPA-3] (H-CVRVRLDNRRSGLRISLQVC-OH; disulfide 1-20) | – | – | – | >128 µg/mL | 0.39%
11 | CVTVRVNNRGGRLKVSVEVC (disulfide 1-20 (inferred)) [SySA-56] | > 256 µg/mL | > 256 µg/mL | 0.19% | – | –
12 | CRIKIDVDNRRRTLKLQLEC (disulfide 1-20 (inferred)) [SySA-74] | > 256 µg/mL | > 256 µg/mL | 0.72% | – | –
13 | CRIRIDVNNRSGTLKLQVQC (disulfide 1-20 (inferred)) [SySA-36] | > 256 µg/mL | > 256 µg/mL | -0.0122% | – | –
14 | CLTVRVDNRGSRLKVTVEVC (disulfide 1-20 (inferred)) [SySA-55] | > 256 µg/mL | > 256 µg/mL | -0.10% | – | –
15 | CC[C@H](C)[C@@H]1NC(=O)[C@H](CCCNC(=N)N)NC(=O)[C@H](CC(C)C)NC(=O)[C@H](CCCNC(=N)N)NC(=O)CNC(=O)[C@H](CCCNC(=N)N)NC(=O)[C@H](CCCNC(=N)N)NC(=O)[C@H](CC(=O)O)NC(=O)[C@H](CC(=O)O)NC(=O)[C@H](CC(C)C)NC(=O)[C@H](CCCNC(=N)N)NC(=O)[C@H](C(C)C)NC(=O)[C@H](CCCNC(=N)N)NC(=O)[C@H](CC(C)C)NC(=O)[C@@H](N)CSSC[C@@H](C(=O)O)NC(=O)[C@H](C(C)C)NC(=O)[C@H](CCC(N)=O)NC(=O)[C@H](CC(C)C)NC(=O)[C@H](CO)NC1=O [SyPA-9] (H-CLRVRLDDRRGRLRISLQVC-OH; disulfide 1-20) | – | – | – | 64 µg/mL | 11.36%
16 | CRVKVNINNGSRRLRLQVQC (disulfide 1-20 (inferred)) [SySA-50] | > 256 µg/mL | > 256 µg/mL | 0.34% | – | –
